Consider 2 molecules from patent US6518318B1, “Stimulating transport of glucose into animal tissue by the administration of pinitol” (priority 1999, dated 2003).

One assay concerns cells. Kind of assay: Glycogen formation (14-C glucose incorporation into ethanol-precipitable glycogen). The format is cell-based. On the procedure:
The method for glycogen incorporation is similar to that of J. Berger and N. S. Hayes, Anal Biochem. 261: 159-163 (1998), one of several standard references for radiolabeled (14-C) glucose incorporation into ethanol-precipitable glycogen. Into each well was added 1.25 mil of 1% TritonX100. The wells were then placed on a rotating agitator for 30 minutes to dissolve the cells. A 1 ml sample was removed from each well and placed in a 10 ml plastic tube. Into each sample was added 1 ml of a solution containing 18% trichloroacetic acid and 2 mg/ml of glycogen (added as carrier). The treated samples were placed on ice for 20 minutes and then centrifuged for 10 minutes at 10,000 RPM with the supernatant transferred to new plastic tubes. The remaining solids were washed by adding 0.3 ml of the trichloracetic acid-glycogen solution to the pellet, and centrifuged again as before. The combined supernatants were added to 4 ml of ice cold ethanol and 0.25 ml of 2% sodium sulphate (to help precipitate glycogen, as in L. Y. Hung and L. A. Menahan, Biochemical Medicine, Vol. 24: 356-360 (1980)). This was left overnight at 4° C. The precipitate was collected the next day by centrilugation at 10,000 RPM for 10 min. The precipitate was redisolved in water (2 ml) and reprecipitated as before with ethanol and sodium sulphate. The precipitate was dissolved in water, added to scintillation fluid, and radioactivity determined.

The subject of a further assay is L6 Myoblasts. The assay is described as follows: Glucose uptake (glucose transport) in cell culture. The format is cell-based. As to conditions: for GLUCOSE TRANSPORT: Table 3, control 151. On the procedure: Glucose transport was tested and measured in accordance with the protocol set forth in Amira Kip et al., Induction of Sugar Uptake Response to Insulin by Serum Depletion in Fusing L6 Myoblasts, American Journal of Physiology, Vol. 247, No. 3, Part 1 (September 1984), herein incorporated by reference, except that the cell culture was preincubated for only 2 hours and the cells treated with varying concentrations of pinitol, insulin or a combination thereof as set forth in Tables One through Three. The raw data, in terms of “counts per minute” as measured with a scintillation counter, is provided in Tables One and Two, while calculated data, in terms of “pmol min^−1 mg protein^−1,” is provided in Table Three.

Where [1] appears, read: Experiment Two, administered alone, at higher concentrations.

In the case of `CO[C@H]1[C@H](O)[C@@H](O)[C@@H](O)[C@H](O)[C@@H]1O` [Pinitol], the “GLYCOGEN FORMATION 1st Set” value came out at 68.36 nmol/min/mg in the assay with cells (Table 4, Pinitol 1.4 mM); 57.75 nmol/min/mg in the assay on cells (Table 4, Pinitol 144.0 mM); 102.40 nmol/min/mg in the assay on cells (Table Five, Pinitol 1.4 mM); 123.03 nmol/min/mg in the assay on cells (Table Five, Pinitol 144 mM). For the same molecule, the “GLYCOGEN FORMATION 2nd Set” value with cells (Table 4, Pinitol 1.4 mM) came out at 79.08 nmol/min/mg; in the assay on cells (Table 4, Pinitol 144.0 mM), 83.14 nmol/min/mg; with cells (Table Five, Pinitol 1.4 mM) it was 117.18 nmol/min/mg; in the assay on cells (Table Five, Pinitol 144 mM) it was 211.04 nmol/min/mg. Moreover, the “GLYCOGEN FORMATION 3rd Set” value with cells (Table 4, Pinitol 1.4 mM) came out at 64.37 nmol/min/mg; in the assay on cells (Table 4, Pinitol 144.0 mM), 64.24 nmol/min/mg; in the assay on cells (Table Five, Pinitol 1.4 mM), 183.05 nmol/min/mg; in the assay on cells (Table Five, Pinitol 144 mM) it was 146.53 nmol/min/mg. Besides, the “GLYCOGEN FORMATION Average” value was found to be 70.60 ± 7.61 nmol/min/mg in the assay with cells (Table 4, Pinitol 1.4 mM, control 52.44 ± 4.58); 68.38 ± 13.19 nmol/min/mg in the assay with cells (Table 4, Pinitol 144.0 mM, control 52.44 ± 4.58); 133.14 ± 30.99 nmol/min/mg in the assay on cells (Table Five, Pinitol 1.4 mM, control 130.18 ± 20.87); 161.71 ± 46.39 nmol/min/mg with cells (Table Five, Pinitol 144 mM, control 130.18 ± 20.87). The “GLYCOGEN FORMATION 4th Set” value in the assay with cells (Table Five, Pinitol 1.4 mM) worked out at 113.15 nmol/min/mg; in the assay on cells (Table Five, Pinitol 144 mM) it was 192.74 nmol/min/mg. Besides, the “GLYCOGEN FORMATION 5th Set” value in the assay on cells (Table Five, Pinitol 1.4 mM) amounted to 124.64 nmol/min/mg; with cells (Table Five, Pinitol 144 mM), 97.05 nmol/min/mg. Moreover, the “GLYCOGEN FORMATION 6th Set” value came to 158.40 nmol/min/mg in the assay with cells (Table Five, Pinitol 1.4 mM) and 199.85 nmol/min/mg with cells (Table Five, Pinitol 144 mM). For the same molecule, the “stimulation of glycogen formation (conclusion)” value in the assay with cells (administered alone) is “significant stimulation in glycogen formation”. In addition, the “stimulation of glucose transport (conclusion)” value with L6 Myoblasts (setting [1]) is “significant stimulation in glucose transport”; with L6 Myoblasts (alone, higher concentrations (e.g., 1.44 mM)), “significant stimulation in glucose transport”; in the assay with L6 Myoblasts (alone, low concentrations (e.g., 0.14 mM)), “does not meaningfully stimulate glucose transport”. Further, the “COUNTS PER MINUTE (glucose uptake)” value stood at 5221 counts per minute in the assay on L6 Myoblasts (Table 1, Pinitol 0.14 mM, raw data, control 5185); 6009 counts per minute in the assay on L6 Myoblasts (Table 1, Pinitol 1.44 mM, raw data, control 5185); 6007 counts per minute in the assay on L6 Myoblasts (Table 2, Pinitol 1.0 mM, control 3178). Besides, the “GLUCOSE TRANSPORT” value in the assay with L6 Myoblasts (Pinitol 0.14 mM, calculated data) is recorded as 155 pmol · min^−1 · mg protein^−1.
Regarding “Insulin: insulin, used to treat the cells alone or with pinitol as comparison”, in the assay on cells (Table 4, Insulin 10^−6 mM), the “GLYCOGEN FORMATION 1st Set” value is listed as 136.27 nmol/min/mg, the “GLYCOGEN FORMATION 2nd Set” value is reported as 96.14 nmol/min/mg and the “GLYCOGEN FORMATION 3rd Set” value worked out at 212.09 nmol/min/mg. The “GLYCOGEN FORMATION Average” value with cells (Table 4, Insulin 10^−6 mM, control 52.44 ± 4.58) is reported as 148.17 ± 58.89 nmol/min/mg. In the assay on cells (Table 4, Insulin 10^−8 mM), the “GLYCOGEN FORMATION 1st Set” value is 68.45 nmol/min/mg and the “GLYCOGEN FORMATION 2nd Set” value is 75.36 nmol/min/mg. Further, in the assay on cells (Table 4, Insulin 10^−8 mM, control 52.44 ± 4.58), the “GLYCOGEN FORMATION Average” value is 71.90 ± 4.89 nmol/min/mg. Besides, in the assay on cells (Table Five, Insulin 10^−7 M), the “GLYCOGEN FORMATION 1st Set” value is reported as 186.52 nmol/min/mg, the “GLYCOGEN FORMATION 2nd Set” value is given as 179.88 nmol/min/mg, the “GLYCOGEN FORMATION 3rd Set” value is listed as 79.32 nmol/min/mg and the “GLYCOGEN FORMATION 4th Set” value is on record as 167.44 nmol/min/mg. In addition, the “GLYCOGEN FORMATION 5th Set” value with cells (Table Five, Insulin 10^−7 M) was 136.35 nmol/min/mg. In addition, the “GLYCOGEN FORMATION Average” value in the assay with cells (Table Five, Insulin 10^−7 M, control 130.18 ± 20.87) stood at 149.90 ± 43.91 nmol/min/mg. In addition, in the assay with L6 Myoblasts (setting [1]), the “stimulation of glucose transport (conclusion)” value is listed as “significant stimulation in glucose transport”. In the assay on L6 Myoblasts (Table 2, Insulin 10^−3 mM, control 3178), the “COUNTS PER MINUTE (glucose uptake)” value came to 4477 counts per minute. In addition, in the assay with L6 Myoblasts (Insulin 10^−5 mM), the “GLUCOSE TRANSPORT” value was 200 pmol · min^−1 · mg protein^−1.
